Results: patent US12605305B2, “Application of citrate metal salt in endodontic treatment, and formulation obtained by preparation” (KUNMING QINGCHENG HEALTHCARE TECH LTD., priority 2020, dated 2026)
Entries after “also recorded” stand apart in the source; their conditions may differ. Read-outs that look alike come from different tables or passages of the source.

What was measured:
[1] = Compatibility of cationic antibacterial agent with sodium citrate solution; format: physicochemical; settings: for Phenomenon (compatibility with sodium citrate solution): 20% sodium citrate solution mixed 1:1 with 0.2% agent solution, room temperature, dark, 7 days
Experimental: (§1) Materials to be tested: sodium citrate, potassium citrate, lithium citrate, citric acid, EDTA-2Na.
(§2) Each of the citric acid metal salts to be tested was prepared as a 20% aqueous solution; the citric acid to be tested was prepared as a 20% aqueous solution; the EDTA-2Na to be tested was prepared as a 10% aqueous solution; and the cationic antibacterial agent to be tested was prepared as a 0.2% aqueous solution. Each of the prepared aqueous solutions of citrate metal salt (or citric acid aqueous solutions) was mixed with each of the prepared aqueous solutions of cationic antibacterial agent to be tested at a ratio of 1:1.
(§3) All the mixed solutions were stored at room temperature in dark and left standing for 7 days before observation.

[2] = Compatibility of cationic antibacterial agent with lithium citrate solution; format: physicochemical; settings: for Phenomenon (compatibility with lithium citrate solution): 20% lithium citrate solution mixed 1:1 with 0.2% agent solution, room temperature, dark, 7 days
Experimental: as §1, §2, §3

[3] = Compatibility of cationic antibacterial agent with EDTA-2Na solution; format: physicochemical; settings: 10% EDTA-2Na solution mixed 1:1 with 0.2% agent solution, room temperature, dark, 7 days
Experimental: as §1, §2, §3

[4] = Compatibility of cationic antibacterial agent with citric acid solution; format: physicochemical; settings: 20% citric acid solution mixed 1:1 with 0.2% agent solution, room temperature, dark, 7 days
Experimental: as §1, §2, §3

[5] = Compatibility of cationic antibacterial agent with potassium citrate solution; format: physicochemical; settings: for Phenomenon (compatibility with potassium citrate solution): 20% potassium citrate solution mixed 1:1 with 0.2% agent solution, room temperature, dark, 7 days
Experimental: as §1, §2, §3

[6] = cited from earlier work
[7] = Evaluation of the effect of removing smear layer in vitro (SEM of treated root canal specimens)
Description: Healthy single premolars that need to be extracted for the purpose of clinical orthodontic extraction. Patient age: 14-25 years old. Inclusion criteria: single upright unobstructed root canal, fully developed apical foramen, no near-pulp caries or near-pulp fillings, no history of pulp therapy, no apical root resorption, no root fracture, and other defects, and no periodontal disease.
The soft tissue and calculus around the root of the isolated teeth were removed. The isolated teeth were cleaned and packed for high-temperature and high-pressure steam sterilization. Three sterilized isolated teeth were taken randomly and placed in 10 ml of BHI liquid culture medium, cultured at 37° C. for 24 h, and then taken out. With the naked eye, if the BHI liquid culture medium remains transparent, it is considered that the sterilization effect is reliable. If the BHI liquid culture medium is turbid, it is necessary to re-disinfect all samples and repeat the above steps. After confirmation of successful sterilization, the samples were stored at room temperature for later use.
The pulp chamber of the isolated teeth confirmed to be successfully sterilized was opened using a high-speed hand-piece with an emery ball bit with a diameter of 0.5 mm. After pulp extirpation, the root canal was dredged with an ISO standard #10 stainless steel hand K file, until the file tip that just penetrated the apical foramen was seen. The file was measured for length, from which 0.5 mm was subtracted to establish the working length of the root canal. Then the root canal preparation was performed using a Protaper Universal Engine with Nickel-titanium root canal file to 25/06. […]

[8] = root canal treated for 5 minutes

Compound | Phenomenon (compatibility with sodium citrate solution) [1] | Phenomenon (compatibility with lithium citrate solution) [2] | Phenomenon (compatibility with EDTA-2Na solution) [3] | Phenomenon (compatibility with citric acid solution) [4] | Phenomenon (compatibility with potassium citrate solution) [5] | pH value ([6]; 5% citric acid solution) | pH value ([6]; 10% citric acid solution) | compatibility with sodium citrate (conclusion in words) [1] | compatibility with lithium citrate (conclusion in words) [2] | compatibility with potassium citrate (conclusion in words) [5] | effect of removing the smear layer [7, 8] | effect of removing the smear layer ([7]; treatment time as per figures (1, 5 and/or 10 min) or not stated)
CC(=O)O.CC(=O)O.NC(=N\CCCCCC/N=C(N)/N=C(\N)Nc1ccc(Cl)cc1)/N=C(\N)Nc1ccc(Cl)cc1 [chlorhexidine acetate, reference compound] | + | + | + | + | + |  |  |  |  |  |  | 
N=C(NCCCCCCNC(=N)NC(=N)Nc1ccc(Cl)cc1)NC(=N)Nc1ccc(Cl)cc1.O=C(O)[C@H](O)[C@@H](O)[C@H](O)[C@H](O)CO.O=C(O)[C@H](O)[C@@H](O)[C@H](O)[C@H](O)CO [chlorhexidine gluconate, reference compound] | + | + | + | + | + |  |  |  |  |  |  | 
O=C(O)CC(O)(CC(=O)O)C(=O)O [citric acid] |  |  |  |  |  | 1.93 | 1.91 |  |  |  |  | 
CCCCCCCCCCCC[N+](C)(C)Cc1ccccc1.[Br-] [dodecyl dimethyl benzyl ammonium bromide] | − | − | − | − | − |  |  | compatible | compatible | compatible |  | 
CCCCCCCCCCCC[N+](C)(C)Cc1ccccc1.[Cl-] [dodecyl dimethyl benzyl ammonium chloride] | − | − | − | − | − |  |  | compatible | compatible | compatible |  | 
CCCCCCCCCCCC[N+](C)(C)C.[Cl-] [dodecyl trimethyl ammonium chloride] | − | − | − | − | − |  |  | compatible | compatible | compatible |  | 
CCCCCCCCCCCCCCCC[n+]1ccccc1.[Cl-] [hexadecyl pyridinium chloride, reference compound] | − | − | − | − | − |  |  | compatible | compatible | compatible |  | 
O=P([O-])([O-])OP(=O)([O-])[O-].[K+].[K+].[K+].[K+] [potassium pyrophosphate] |  |  |  |  |  |  |  |  |  |  | could not improve the effect of the formulation on removing the smear layer | 
O=P(O)(O)OP(=O)(O)OP(=O)(O)O [sodium tripolyphosphate] |  |  |  |  |  |  |  |  |  |  | not helpful for sodium citrate to improve the effect of removing the smear layer | cannot be effective in removing the smear layer; also recorded: very poor effect of removing the smear layer
N-cocoyl-L-arginine ethyl ester-DL-pyrrolidone carboxylate | + | + | + | + | + |  |  |  |  |  |  | 
polydimethyl diallyl ammonium chloride | − | − | − | − | − |  |  | compatible | compatible | compatible |  | 
polyhexamethyl guanidine hydrochloride | + | + | + | + | + |  |  |  |  |  |  | 
polyhexamethylene biguanide hydrochloride | + | + | + | + | + |  |  |  |  |  |  | 
